Data on 16 compounds can be found in article PMC11204085, “Molecular Characterization of Chemosensory Protein (CSP) Genes and the Involvement of AgifCSP5 in the Perception of Host Location in the Aphid Parasitoid Aphidius gifuensis” (International Journal of Molecular Sciences, 2024).

The structures appear in SMILES notation. “Also recorded” adds a separate entry of the source. Read-outs that look alike come from different tables or passages of the source.

In one experiment the target is AgifCSP5 (Aphidius gifuensis, UniProt A0A3Q9ELG9). In words: Fluorescence competitive binding assay with 1-NPN probe, wild-type AgifCSP5. Particulars: for Binding affinity in words: wild-type AgifCSP5. An excerpt: (§1) The candidate VOCs were mainly derived from various organic volatiles in wheat field habitats, referring to the compounds related to wheat plants and wheat aphids previously reported in a published paper by Jiang et al. in 2022 and 2023 [11, 12], including four groups of ligands: (1) aphid alarm pheromone components; (2) aphid sex pheromone; (3) green leaf volatiles of wheat; and (4) aphid-induced plant volatiles. […] The classes, CAS numbers, and purities of the chemicals used in these assays are listed in Appendix B. A Lengguang 970CRT spectrofluorimeter (Shanghai Jingmi, Shanghai, China) equipped with a 1 cm light path fluorimeter quartz cuvette was used to record the fluorescence intensity at room temperature with the following parameters: the excitation wavelength was set at 337 nm, the emission light wavelength was recorded at 350–500 nm, the high-speed scan mode was used, and the slit width was 10 nm. To determine the binding affinity of 1-NPN for AgifCSP5 proteins, a 2 µM protein solution diluted with 50 mM Tris-HCl at pH 7.4 was titrated with aliquots of the 1 mM 1-NPN stock solution to final concentrations ranging from 2–40 μM. Ligands bound to AgifCSP5 have a protein:ligand ratio of 1:1. Three independent repeats were carried out for all measurements. The binding affinity of AgifCSP5 for all ligands was calculated by the formula Ki = [IC50]/(1 + [1 − NPN]/K1-NPN), where the IC50 is defined as the concentration of a competitor that caused a 50% reduction in fluorescence intensity, K1-NPN is the dissociation constant (Kd) of the AgifCSP5/1-NPN complex, and [1-NPN] is the free concentration of 1-NPN.
AgifCSP5, sequence (A0A3Q9ELG9 entry or part of it): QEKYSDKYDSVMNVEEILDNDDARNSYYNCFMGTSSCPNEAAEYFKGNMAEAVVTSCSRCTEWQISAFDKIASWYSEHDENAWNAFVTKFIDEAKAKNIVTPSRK

For a further experiment, the target named is R24A mutant of AgifCSP5 (Aphidius gifuensis, UniProt A0A3Q9ELG9, R44A). In words: Fluorescence competitive binding assay, R24A mutant.
R24A mutant of AgifCSP5, sequence (A0A3Q9ELG9 entry or part of it R44A): as the sequence (A0A3Q9ELG9 entry or part of it) above, with R24A counted along it
Description: as §1
(§2) The mutagenesis primers for the targeted key amino acid residues were designed online (https://crm.vazyme.com/cetool/singlepoint.html (accessed on 24 December 2023)) according to the protocols of the Mut Express II Fast Mutagenesis Kit V2 (Vazyme, China) (Appendix B). Mutations were obtained by using Phanta Max Superfidelity DNA Polymerase with recombinant Plasmid pET-30a/AgifCSP5 plasmid DNA as a template. The plasmids of the mutants were verified by DNA sequencing. The mutated proteins were then expressed and purified, as described above. After protein concentration determination, the binding affinities of the mutants with ligands that previously bound well to the AgifCSP5 protein were verified using fluorescence competitive binding assays.

The target in another experiment is Y75A mutant of AgifCSP5 (Aphidius gifuensis, UniProt A0A3Q9ELG9, Y95A). In words: Fluorescence competitive binding assay, Y75A mutant.
Y75A mutant of AgifCSP5, sequence (A0A3Q9ELG9 entry or part of it Y95A): as the sequence (A0A3Q9ELG9 entry or part of it) above, with Y75A counted along it
Description: as §1, §2

The subject of another experiment is A. gifuensis adults. In words: Y-tube olfactometer assay. Format: in vivo, Aphidius gifuensis. As for the experimental part:
The behavioral responses of A. gifuensis to volatiles were tested using a Y-tube olfactometer (3.5 cm in diameter, arms 20 cm in length, and a stem 20 cm in length). The assay method was described by Guo et al., and minor improvements were made. The incoming air at a constant flow (300 mL/min) was first filtered using allochroic silica gel and activated carbon and then humidified with ultrapure water. The test compounds were serially diluted with paraffin oil to concentrations of 0.01, 0.1, 1, 10, and 100mg/mL. A total of 10 μL of tested volatile oil preloaded onto 1 cm diameter filter paper was placed in the chamber of the chosen treatment arm of the Y-tube olfactometer, and the same filter paper in another chamber of the chosen control arm was loaded with 10 μL of liquid paraffin. The choice of each adult introduced into the Y-tube stem within 5 min was recorded. The experiments were performed in a dark room at room temperature (25 ± 1 °C), and a light-emitting diode installed at 30 cm was used as the light source. In total, no fewer than 60 adults (at least 30 from each sex) were used in each treatment. After 5 insects were tested, we switched the positions of the volatile arm and the control arm, and after a total of 10 insects were tested, the Y-tube olfactometer was washed with 75% ethanol and air-dried.

Setting [1] is: wild-type AgifCSP5, 1-NPN displacement, pH 7.4, read-out: IC50.
Where [2] appears, read: wild-type AgifCSP5, 1-NPN displacement, pH 7.4, read-out: Ki.

In the case of `CCCCCCCCCCCCCCCCCO` [1-Heptadecanol], on AgifCSP5, the IC50 was determined as 21.4 ± 1.07 µM and the Ki is 15.8 ± 0.79 µM.

Turning to `c1ccc(Nc2cccc3ccccc23)cc1` [1-NPN, N-phenyl-1-naphthylamine, reference compound], the Kd at R24A mutant of AgifCSP5 is 14.4 µM; on Y75A mutant of AgifCSP5, 3.13 µM; at AgifCSP5, 3.64 µM.

Turning to `CC(=O)CCC=C(C)C` [6-Methyl-5-hepten-2-one], at AgifCSP5, the IC50 amounted to 24.5 ± 1.43 µM and the affinity corresponds to a Ki of 18.2 ± 1.06 µM.

As for `CC1=CC[C@@H]2C[C@H]1C2(C)C` [(1R)-(+)-α-Pinene], on AgifCSP5, the IC50 was determined as 22.5 ± 2.42 µM and the Ki was determined as 16.7 ± 1.79 µM.

In the case of `CC1=CCC(C(C)(C)O)CC1` (stereo not drawn) [(+)-α-Terpineol], the IC50 at AgifCSP5 (setting [1]) turned out to be 29.4 ± 1.6 µM. In addition, at AgifCSP5 (setting [2]), the Ki is 21.8 ± 1.19 µM.

Take `C=CC(=C)CC/C=C(\C)CCC=C(C)C` [(E)-β-Farnesene]: the “Binding affinity in words” value is given as “weakly binds” at AgifCSP5 and “weak binding affinities” on AgifCSP5 (listed as EBF). In addition, the IC50 at AgifCSP5 (setting [1]) was 25.9 ± 1.16 µM. Moreover, at AgifCSP5 (setting [2]), the Ki came out at 19.2 ± 0.86 µM.

Regarding `C=C(C)[C@H]1CC=C(C)CC1` [(R)-(+)-Limonene], the IC50 at AgifCSP5 (setting [1]) was 25.2 ± 4.06 µM. Besides, the Ki on AgifCSP5 (setting [2]) was found to be 18.7 ± 3.01 µM.

Regarding `C=C(C)[C@@H]1CC=C(C)C(=O)C1` [(R)-(−)-Carvone], at AgifCSP5, the IC50 is 23 ± 0.91 µM and the Ki was found to be 17 ± 0.67 µM.

Consider `C=C(C)[C@@H]1CC=C(C)CC1` [(S)-(−)-Limonene], for which, at AgifCSP5 (setting [1]), the IC50 was 28.4 ± 2.84 µM. Besides, the Ki at AgifCSP5 (setting [2]) stood at 21 ± 2.1 µM.

Regarding `C=C/C(C)=C\CC=C(C)C` [(Z)-β-ocimene], the IC50 on R24A mutant of AgifCSP5 (R24A mutant, read-out: IC50) is 18.2 ± 1.97 µM; on Y75A mutant of AgifCSP5 (Y75A mutant, read-out: IC50) it was 30.8 ± 7.87 µM; at AgifCSP5 (setting [1]), 18 ± 2.89 µM. Moreover, the Ki came out at 16.7 ± 2.73 µM on R24A mutant of AgifCSP5 (R24A mutant, read-out: Ki); 21.9 ± 5.59 µM on Y75A mutant of AgifCSP5 (Y75A mutant, read-out: Ki); 13.3 ± 2.14 µM on AgifCSP5 (setting [2]). Besides, the “Behavioral response in words” value was “significantly repelled; also recorded: repellent effects” with A. gifuensis adults (100 mg/mL) and “did not show any repelling or attracting activity” in the experiment on A. gifuensis adults (low concentrations).

At AgifCSP5, `COc1cc(C(C)=O)cc(OC)c1O` [Acetosyringone] yielded an IC50 of 36.9 ± 6.77 µM and a Ki of 27.3 ± 5.01 µM.

As for `O=Cc1ccccc1` [Benzaldehyde], the results for the IC50 on R24A mutant of AgifCSP5, on Y75A mutant of AgifCSP5 and on AgifCSP5 were 17.3 ± 3.62 µM, more than 40 µM and 18.2 ± 0.88 µM, respectively. The Ki was 15.8 ± 3.33 µM on R24A mutant of AgifCSP5 and 13.5 ± 0.65 µM on AgifCSP5. In addition, the figures for the “Behavioral response in words” value in the experiment with A. gifuensis adults (100 mg/mL) and in the experiment on A. gifuensis adults (low concentrations) were “significantly repelled; also recorded: repellent effects; also recorded: strongly repelled” and “did not show any repelling or attracting activity”, respectively.

Take `OCc1ccccc1` [Benzyl alcohol]: at AgifCSP5, the IC50 was found to be 22.4 ± 4.58 µM and the affinity, expressed as Ki, was 16.6 ± 3.39 µM.

At AgifCSP5, `CC(=O)OC/C=C(\C)CCC=C(C)C` [Geranyl acetate] returned an IC50 of 27.3 ± 4.87 µM and a Ki of 20.2 ± 3.61 µM.

As for `CCCCCCCCCCCCCCCCCCCCC` [Heneicosane], on AgifCSP5, the IC50 was 22.5 ± 2.42 µM and the Ki came out at 16.7 ± 1.79 µM.

In the case of `CC/C=C\CCO` [Leaf alcohol], at AgifCSP5 (setting [1]), the IC50 was 27.9 ± 0.8 µM. Also, the Ki at AgifCSP5 (setting [2]) is 20.6 ± 0.59 µM.
